# Reference: patent publication US20210330611A1, “THERAPY FOR NEUROLOGICAL DISEASES/DISORDERS” (priority 2020, published 2021)
# pIC50: −log10 of the molar value. Counter-ions that a name gives are not always drawn. Like-named read-outs stand apart in the source and are kept apart here.
# Columns and labels:
# primary rat microglia [1] = test system: primary rat microglia;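 on Fibrin % cell toxicity: share of dead cells sized under 150 µm2 at 10 µM in fibrin-stimulated microglia HTS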
# primary rat microglia [2] = test system: primary rat microglia; remark: listed apart in the source;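 on Fibrin % cell toxicity: share of dead cells sized under 150 µm2 at 10 µM in fibrin-stimulated microglia HTS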
# [3] = test system: fibrin-induced microglia activation; test: Image-based assay of fibrin-induced microglia activation (HTS and dose response); format: cell-based, rat; conditions: for inhibition at 10 µM: read-out: Fibrin % inhibition
# [4] = test system: LPS-induced microglia activation; test: Image-based assay of LPS-induced microglia activation (HTS and dose response); format: cell-based, rat
# [5] = test system: fibrin- and LPS-induced microglia activation; test: cells; format: cell-based, rat
# [6] = quadrant by fibrin and LPS inhibition in HTS of 1907 compounds
# [7] = Rattus norvegicus, Microglia, primary microglia HTS, fibrin stimulation, compounds at 10 μM
# [8] = Rattus norvegicus, Microglia, primary microglia HTS, LPS stimulation, compounds at 10 μM; read-out: LPS % inhibition
# [9] = quadrant by fibrin and LPS inhibition, HTS at 10 μM
# [10] = Rattus norvegicus, Microglia, primary microglia HTS, fibrin stimulation, increased cell size (>800 μm^2) as marker of activation
# [11] = Rattus norvegicus, Microglia, 48 h, primary microglia HTS, LPS stimulation; increased cell size (>800 μm^2) as marker of activation; read-out: LPS % inhibition
# [12] = classification by fibrin and LPS inhibition, HTS at 10 μM
# [13] = Rattus norvegicus, Microglia, 48 h, read-out: LPS % inhibition
# [14] = Rattus norvegicus, Microglia, primary microglia HTS, fibrin stimulation, cell size >800 μm2 as marker of activation
# [15] = classification by fibrin and LPS inhibition in HTS
# [16] = Rattus norvegicus, Microglia, read-out: LPS % inhibition
smiles,measurement,setting,value
O=C(OCC(O)CO)c1ccccc1Nc1ccnc2cc(Cl)ccc12 (stereo not drawn) [Glafenine],LPS % cell toxicity,primary rat microglia [1]; rat,0%
same,Fibrin % cell toxicity,primary rat microglia [2]; rat,1%
same,inhibition at 10 µM,"[3]; Rattus norvegicus, Microglia, primary microglia HTS, fibrin stimulation, activation = cell size >800 μm2",8%
same,inhibition at 10 µM,"[4]; Rattus norvegicus, Microglia, 48 h, primary microglia HTS, LPS stimulation, activation = cell size >800 μm2; read-out: LPS % inhibition",18%
same,Quadrant (FIG. 5b),[5]; [6],Q4
N=c1ccn2c(n1)O[C@H]1[C@H](O)[C@@H](CO)O[C@H]12 [Ancitabine Hydrochloride],LPS % cell toxicity,primary rat microglia [1]; rat,1%
same,Fibrin % cell toxicity,primary rat microglia [2]; rat,1%
same,inhibition at 10 µM,[3]; [7],-4%
same,inhibition at 10 µM,[4]; [8],27%
same,Quadrant (FIG. 5b),[5]; [9],Q4
COc1cccc2c1C(=O)c1c(O)c3c(c(O)c1C2=O)C[C@@](O)(C(C)=O)C[C@@H]3O[C@H]1C[C@H](N)[C@H](O)[C@H](C)O1 [Daunorubicin],LPS % cell toxicity,primary rat microglia [1]; rat,57%
same,Fibrin % cell toxicity,primary rat microglia [2]; rat,77%
same,inhibition at 10 µM,[3]; [10],116%
same,inhibition at 10 µM,[4]; [11],114%
same,Quadrant (FIG. 5b),[5]; [6],Q2
CCn1cc(C(=O)O)c(=O)c2cc3c(cc21)OCO3 [Oxolinic Acid],LPS % cell toxicity,primary rat microglia [1]; rat,1%
same,Fibrin % cell toxicity,primary rat microglia [2]; rat,0%
same,inhibition at 10 µM,[3]; [10],7%
same,inhibition at 10 µM,[4]; [11],13%
same,Quadrant (FIG. 5b),[5]; [6],Q4
CC[C@@H](CO)NCCN[C@@H](CC)CO [Ethambutol],LPS % cell toxicity,primary rat microglia [1]; rat,1%
same,Fibrin % cell toxicity,primary rat microglia [2]; rat,1%
same,inhibition at 10 µM,[3]; [7],12%
same,inhibition at 10 µM,[4]; [8],14%
same,Quadrant (FIG. 5b),[5]; [12],Q4
OC(c1cc(C(F)(F)F)nc2c(C(F)(F)F)cccc12)C1CCCCN1 (stereo not drawn) [Mefloquine],LPS % cell toxicity,primary rat microglia [1]; rat,0%
same,Fibrin % cell toxicity,primary rat microglia [2]; rat,1%
same,inhibition at 10 µM,[3]; [10],-18%
same,inhibition at 10 µM,[4]; [11],13%
same,Quadrant (FIG. 5b),[5]; [6],Q4
Cc1cc(C(C)(C)CC(C)(C)C)ccc1OCCOCC[N+](C)(C)Cc1ccccc1.[Cl-] [Methylbenzethonium Chloride],LPS % cell toxicity,primary rat microglia [1],10%
same,Fibrin % cell toxicity,primary rat microglia [2],17%
same,Fibrin % inhibition,"[3]; primary microglia HTS, fibrin stimulation, compounds at 10 μM",105%
same,LPS % inhibition,"[4]; primary microglia HTS, LPS stimulation, compounds at 10 μM",108%
same,Quadrant (FIG. 5b),[5]; [9],Q2
"CNCCCN1c2ccccc2CCc2ccccc21 [Desipramine hydrochloride, reference compound]",LPS % cell toxicity,primary rat microglia [1]; rat,4%
same,Fibrin % cell toxicity,primary rat microglia [2]; rat,1%
same,pIC50,"[3]; Rattus norvegicus, Microglia, Table 7, read-out: fib_IC50",5.79
same,inhibition at 10 µM,[3]; [10],-2%
same,inhibition at 10 µM,[4]; [11],83%
same,pIC50,"[4]; Rattus norvegicus, Microglia, Table 7; read-out: LPS_IC50",8.70
same,Activity,[5],fib/LPS
same,Quadrant (FIG. 5b),"[5]; Table 2, screen at 10 μM",Q1
same,Quadrant (FIG. 5b),[5]; [6],Q1
CNCCCC1c2ccccc2C=Cc2ccccc21 [Protriptyline],LPS % cell toxicity,primary rat microglia [1]; rat,0%
same,Fibrin % cell toxicity,primary rat microglia [2]; rat,1%
same,inhibition at 10 µM,"[3]; Rattus norvegicus, Microglia",21%
same,inhibition at 10 µM,[4]; [13],15%
same,Quadrant (FIG. 5b),[5],Q4
CC(C)CC(N(C)C)C1(c2ccc(Cl)cc2)CCC1 (stereo not drawn) [Sibutramine],LPS % cell toxicity,primary rat microglia [1]; rat,0%
same,Fibrin % cell toxicity,primary rat microglia [2]; rat,1%
same,inhibition at 10 µM,[3]; [14],-12%
same,inhibition at 10 µM,"[4]; Rattus norvegicus, Microglia, 48 h, primary microglia HTS, LPS stimulation, cell size >800 μm2 as marker of activation; read-out: LPS % inhibition",8%
same,Quadrant (FIG. 5b),[5]; [15],Q4
Oc1ncnc2[nH]ncc12 [Allopurinol],LPS % cell toxicity,primary rat microglia [1]; rat,0%
same,Fibrin % cell toxicity,primary rat microglia [2]; rat,1%
same,inhibition at 10 µM,[3]; [7],-17%
same,inhibition at 10 µM,[4]; [8],16%
same,Quadrant (FIG. 5b),[5]; [9],Q4
CC1=C(C/C=C(\C)CCC[C@H](C)CCC[C@H](C)CCCC(C)C)C(=O)c2ccccc2C1=O [Phylloquinone],LPS % cell toxicity,primary rat microglia [1],2%
same,Fibrin % cell toxicity,primary rat microglia [2],0%
same,Fibrin % inhibition,"[3]; primary microglia HTS, fibrin stimulation, cell size >800 μm2 as marker of activation",4%
same,LPS % inhibition,[4],31%
same,Quadrant (FIG. 5b),[5]; [15],Q4
O=C1CC2(CCCC2)CC(=O)N1CCCCN1CCN(c2ncccn2)CC1 [Buspirone],LPS % cell toxicity,primary rat microglia [1]; rat,0%
same,Fibrin % cell toxicity,primary rat microglia [2]; rat,0%
same,inhibition at 10 µM,"[3]; Rattus norvegicus, Microglia",-13%
same,inhibition at 10 µM,[4]; [16],8%
same,Quadrant (FIG. 5b),[5],Q4
CN(C)CC[C@@H](c1ccc(Cl)cc1)c1ccccn1 [Dexchlorpheniramine],LPS % cell toxicity,primary rat microglia [1]; rat,0%
same,Fibrin % cell toxicity,primary rat microglia [2]; rat,1%
same,inhibition at 10 µM,[3]; [7],-8%
same,inhibition at 10 µM,[4]; [8],11%
same,Quadrant (FIG. 5b),[5],Q4
CC[C@H]1OC(=O)[C@H](C)[C@@H](O[C@H]2C[C@@](C)(OC)[C@@H](O)[C@H](C)O2)[C@H](C)[C@@H](O[C@@H]2O[C@H](C)C[C@H](N(C)C)[C@H]2O)[C@](C)(O)C[C@@H](C)CN(C)[C@H](C)[C@@H](O)[C@]1(C)O [Azithromycin],LPS % cell toxicity,primary rat microglia [1]; rat,0%
same,Fibrin % cell toxicity,primary rat microglia [2]; rat,0%
same,inhibition at 10 µM,[3]; [7],-16%
same,inhibition at 10 µM,[4]; [8],11%
same,Quadrant (FIG. 5b),[5]; [9],Q4
CCCC(C)C1(CC)C(=O)NC(=S)NC1=O (stereo not drawn) [Thiopental],LPS % cell toxicity,primary rat microglia [1]; rat,0%
same,Fibrin % cell toxicity,primary rat microglia [2]; rat,0%
same,inhibition at 10 µM,"[3]; Rattus norvegicus, Microglia",3%
same,inhibition at 10 µM,[4]; [16],13%
same,Quadrant (FIG. 5b),[5],Q4
CN(C)[C@@H]1C(O)=C(C(N)=O)C(=O)[C@@]2(O)C(O)=C3C(=O)c4c(O)cccc4[C@@](C)(O)[C@H]3[C@H](O)[C@@H]12 [Oxytetracycline],LPS % cell toxicity,primary rat microglia [1]; rat,0%
same,Fibrin % cell toxicity,primary rat microglia [2]; rat,1%
same,inhibition at 10 µM,[3]; [10],0%
same,inhibition at 10 µM,[4]; [11],10%
same,Quadrant (FIG. 5b),[5]; [6],Q4
CNC(=O)Oc1ccc2c(c1)[C@]1(C)CCN(C)[C@@H]1N2C [Physostigmine],LPS % cell toxicity,primary rat microglia [1]; rat,0%
same,Fibrin % cell toxicity,primary rat microglia [2]; rat,0%
same,inhibition at 10 µM,[3]; [14],-73%
same,inhibition at 10 µM,"[4]; Rattus norvegicus, Microglia, 48 h; read-out: LPS % inhibition",18%
same,Quadrant (FIG. 5b),[5]; [15],Q4
NC(=O)c1cccnc1 [Nicotinamide],LPS % cell toxicity,primary rat microglia [1]; rat,0%
same,Fibrin % cell toxicity,primary rat microglia [2]; rat,1%
same,inhibition at 10 µM,"[3]; Rattus norvegicus, Microglia",-8%
same,inhibition at 10 µM,[4]; [13],16%
same,Quadrant (FIG. 5b),[5],Q4
Nc1ccc(S(=O)(=O)Nc2ncccn2)cc1 [Sulfadiazine],LPS % cell toxicity,primary rat microglia [1]; rat,0%
same,Fibrin % cell toxicity,primary rat microglia [2]; rat,0%
same,inhibition at 10 µM,"[3]; Rattus norvegicus, Microglia",-19%
same,inhibition at 10 µM,[4]; [16],13%
same,Quadrant (FIG. 5b),[5],Q4
Fc1ccc(C(c2ccc(F)cc2)N2CCN(C/C=C/c3ccccc3)CC2)cc1 [Flunarizine],LPS % cell toxicity,primary rat microglia [1]; rat,1%
same,Fibrin % cell toxicity,primary rat microglia [2]; rat,1%
same,inhibition at 10 µM,"[3]; Rattus norvegicus, Microglia",-10%
same,inhibition at 10 µM,[4]; [13],12%
same,Quadrant (FIG. 5b),[5],Q4
COc1ccc([C@@H]2Sc3ccccc3N(CCN(C)C)C(=O)[C@@H]2OC(C)=O)cc1 [Diltiazem],LPS % cell toxicity,primary rat microglia [1]; rat,0%
same,Fibrin % cell toxicity,primary rat microglia [2]; rat,1%
same,Fibrin % inhibition,"[3]; primary microglia HTS, fibrin stimulation, compounds at 10 μM, 10 µM",21%
same,inhibition at 10 µM,[4]; [8],9%
same,Quadrant (FIG. 5b),[5]; [12],Q4
Clc1ccc(C(c2ccccc2Cl)C(Cl)Cl)cc1 (stereo not drawn) [Mitotane],LPS % cell toxicity,primary rat microglia [1]; rat,0%
same,Fibrin % cell toxicity,primary rat microglia [2]; rat,0%
same,inhibition at 10 µM,[3]; [10],-19%
same,inhibition at 10 µM,[4]; [11],-1%
same,Quadrant (FIG. 5b),[5]; [6],Q4
NC(CO)C(=O)NNCc1ccc(O)c(O)c1O (stereo not drawn) [Benserazide],LPS % cell toxicity,primary rat microglia [1]; rat,0%
same,Fibrin % cell toxicity,primary rat microglia [2]; rat,0%
same,inhibition at 10 µM,[3]; [7],-16%
same,inhibition at 10 µM,[4]; [8],8%
same,Quadrant (FIG. 5b),[5]; [9],Q4
Cc1ccc(C(=O)c2cc(O)c(O)c([N+](=O)[O-])c2)cc1 [Tolcapone],LPS % cell toxicity,primary rat microglia [1]; rat,0%
same,Fibrin % cell toxicity,primary rat microglia [2]; rat,1%
same,inhibition at 10 µM,"[3]; Rattus norvegicus, Microglia, primary microglia HTS, 10 μM, fibrin-stimulated, cell size >800 μm^2 as marker of activation",-43%
same,inhibition at 10 µM,"[4]; Rattus norvegicus, Microglia, primary microglia HTS, 10 μM, LPS-stimulated, cell size >800 μm^2 as marker of activation; read-out: LPS % inhibition",9%
same,Quadrant (FIG. 5b),"[5]; HTS of 1907 compounds, quadrant by fibrin and LPS inhibition",Q4
